From ChEMBL document CHEMBL1275310, “Synthesis and screening of some novel fused thiophene and thienopyrimidine derivatives for anti-avian influenza virus (H5N1) activity” (2010)

Legend:
Assay type in all cases: functional
Influenza A virus [1] = experiment: Antiviral activity against Influenza A virus (A/chicken/Egypt/1/2006 (H5N1)) infected in MDCK cells assessed as virus-induced cytopathogenicity at 40 ug after 3 to 4 days by plaque reduction assay
Influenza A virus [2] = experiment: Antiviral activity against Influenza A virus (A/chicken/Egypt/1/2006 (H5N1)) infected in MDCK cells assessed as virus-induced cytopathogenicity at 20 ug after 3 to 4 days by plaque reduction assay
Influenza A virus [3] = experiment: Antiviral activity against Influenza A virus (A/chicken/Egypt/1/2006 (H5N1)) infected in MDCK cells assessed as virus-induced cytopathogenicity at 10 ug after 3 to 4 days by plaque reduction assay
Influenza A virus [4] = experiment: Antiviral activity against Influenza A virus (A/chicken/Egypt/1/2006 (H5N1)) infected in MDCK cells assessed as virus-induced cytopathogenicity at 5 ug after 3 to 4 days by plaque reduction assay

| SMILES | inhibition (INH) (Influenza A virus [1]) | inhibition (INH) (Influenza A virus [2]) | inhibition (INH) (Influenza A virus [3]) | inhibition (INH) (Influenza A virus [4]) |
| --- | --- | --- | --- | --- |
| NC(=O)c1c(N)sc2c1-c1ccccc1CC2 | 89% |  |  |  |
| O=c1[nH]c(=S)[nH]c2sc3c(c12)-c1ccccc1CC3 | 65% |  |  |  |
| O=c1[nH]c(=O)c2c3c(sc2[nH]1)CCc1ccccc1-3 | 98% | 95% | 94% | 92% |
